From patent US6472348B1, “Pyridone derivatives and herbicides” (Kumiai Chemical Industry Co., Ltd., priority 1996, dated 2002)

Tests used:
soybean (Gl) = experiment: Test Example 6: crop plant selectivity by upland field soil treatment (soybean), phytotoxicity; format: in vivo; set-up: scale not given here; settings: dose 6.3 g ai/10a, 21st day after application
Protocol: (§1) (Test on Crop Plant Selectivity by Upland Field Soil Treatment)
(§2) In a plastic pot (surface area: 600 cm^2) filled with sand, soybean (Gl), Diaitaria ciliaris (Di), green foxtail (Se), Johnsongrass (So), pale smartweed (Po), slender amaranth (Am), common lambsquarters (Ch) and China jute (Ab) were sown and covered with soil. […] The plants were then cultured in a green house, and the evaluation of the herbicidal effects and phytotoxicity was conducted on the 21st day after the application in accordance with the standards as identified in Table 47. Symbol—represents “not tested”.

slender amaranth (Am) [1] = experiment: Test Example 3: herbicidal effects by upland field foliage treatment; format: in vivo; set-up: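 grade of growth control; 5 = at least 90%; 4 = 70 to 90%; 3 = 50 to 70%; 2 = 30 to 50%; 1 = 10 to 30%; 0 = under 10%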; settings: 100 g of the active ingredient per 10 ares, evaluated on the 14th day after treatment
How it was run: (§3)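 Greenhouse test, upland conditions: seeds sown in sand pots of 120 cm^2 area and overlaid with soil; 2 weeks growth; leaves treated; herbicidal injury graded on day 14 after treatment by fixed standards.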

rice flatsedge (Ci) [2] = experiment: as above; format: in vivo; set-up: scale not given here; settings: 100 g of the active ingredient per 10 ares, evaluated on the 14th day after treatment
How it was run: as §3

Diaitaria ciliaris (Di) = experiment: as above; format: in vivo; set-up: scale not given here; settings: 100 g of the active ingredient per 10 ares, evaluated on the 14th day after treatment
How it was run: as §3

[3] = tested on: common lambsquarters (Ch); experiment: as above; format: in vivo; set-up: scale not given here; settings: 100 g of the active ingredient per 10 ares, evaluated on the 14th day after treatment
How it was run: as §3

barnyardgrass (Ec) [4] = experiment: as above; format: in vivo; set-up: scale not given here; settings: 100 g of the active ingredient per 10 ares, evaluated on the 14th day after treatment
How it was run: as §3

pale smartweed (Po) [5] = experiment: as above; format: in vivo; set-up: scale not given here; settings: 100 g of the active ingredient per 10 ares, evaluated on the 14th day after treatment
How it was run: as §3

slender amaranth (Am) [6] = experiment: Test Example 7: crop plant selectivity by upland field soil treatment (corn), herbicidal effects; format: in vivo; set-up: scale not given here; settings: dose 6.3 g ai/10a, 21st day after application
Protocol: as §1
(§4) In a plastic pot (surface area: 600 cm^2) filled with sand, corn (Ze), green foxtail (Se), pale smartweed (Po), slender amaranth (Am), common lambsquarters (Ch) and China jute (Ab) were sown and covered with soil. […] The plants were then cultured in a green house, and the evaluation of the herbicidal effects and phytotoxicity was conducted on the 21st day after the application in accordance with the standards as identified in Table 47.

[7] = tested on: common lambsquarters (Ch); experiment: as above; format: in vivo; set-up: scale not given here; settings: dose 6.3 g ai/10a, 21st day after application
Protocol: as §1, §4

green foxtail (Se) [8] = experiment: as above; format: in vivo; set-up: scale not given here; settings: dose 6.3 g ai/10a, 21st day after application
Protocol: as §1, §4

pale smartweed (Po) [9] = experiment: as above; format: in vivo; set-up: scale not given here; settings: dose 6.3 g ai/10a, 21st day after application
Protocol: as §1, §4

China jute (Ab) [10] = experiment: as above; format: in vivo; set-up: scale not given here; settings: dose 6.3 g ai/10a, 21st day after application
Protocol: as §1, §4

cotton (Go) = experiment: Test Example 4: crop plant selectivity by upland field soil treatment (cotton), phytotoxicity; format: in vivo; set-up: scale not given here; settings: dose 6.3 g ai/10 a, evaluated 21st day after application
Protocol: as §1
(§5) In a plastic pot (surface area: 600 cm^2) filled with sand, cotton (Go), Diaitaria ciliaris (Di), green foxtail (Se), pale smartweed (Po), slender amaranth (Am), common lambsquarters (Ch) and China jute (Ab) were sown and covered with soil. […] The plants were then cultured in a green house, and the evaluation of the herbicidal effects and phytotoxicity was conducted on the 21st day after the application in accordance with the standards as identified in Table 47. Symbol—represents “not tested”.

slender amaranth (Am) [11] = experiment: Test Example 9: crop plant selectivity by upland field foliage treatment (wheat), herbicidal effects; format: in vivo; set-up: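 grade of growth control; 5 = at least 90%; 4 = 70 to 90%; 3 = 50 to 70%; 2 = 30 to 50%; 1 = 10 to 30%; 0 = under 10%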; settings: dose 1.6 g ai/10a, 14th day after treatment
Protocol: (§6) (Test on Crop Plant Selectivity by Upland Field Foliage Treatment)
(§7) In a plastic pot (surface area: 600 cm^2) filled with sand, wheat (Tr), pale smartweed (Po), slender amaranth (Am), common lambsquarters (Ch) and China jute (Ab) were sown and cultured in a green house for 2 weeks. […] The plants were then cultured in a green house, and the evaluation of the herbicidal effects and phytotoxicity was conducted on the 14th day after the treatment in accordance with the standards as identified in Table 47.

[12] = tested on: common lambsquarters (Ch); experiment: as above; format: in vivo; set-up: scale not given here; settings: dose 1.6 g ai/10a, 14th day after treatment
Protocol: as §6, §7

pale smartweed (Po) [13] = experiment: as above; format: in vivo; set-up: scale not given here; settings: dose 1.6 g ai/10a, 14th day after treatment
Protocol: as §6, §7

China jute (Ab) [14] = experiment: as above; format: in vivo; set-up: scale not given here; settings: dose 1.6 g ai/10a, 14th day after treatment
Protocol: as §6, §7

wheat (Tr) = experiment: Test Example 9: crop plant selectivity by upland field foliage treatment (wheat), phytotoxicity; settings: dose 1.6 g ai/10a, 14th day after treatment;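 also: grade of crop injury; 5 = at least 90%; 4 = 70 to 90%; 3 = 50 to 70%; 2 = 30 to 50%; 1 = 10 to 30%; 0 = under 10%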
Protocol: as §6, §7

corn (Ze) = experiment: Test Example 7: crop plant selectivity by upland field soil treatment (corn), phytotoxicity; format: in vivo; set-up: scale not given here; settings: dose 6.3 g ai/10a, 21st day after application
Protocol: as §1, §4

slender amaranth (Am) [15] = experiment: Test Example 6: crop plant selectivity by upland field soil treatment (soybean), herbicidal effects; format: in vivo; set-up: scale not given here; settings: dose 6.3 g ai/10a, 21st day after application
Protocol: as §1, §2

[16] = tested on: common lambsquarters (Ch); experiment: as above; format: in vivo; set-up: scale not given here; settings: dose 6.3 g ai/10a, 21st day after application
Protocol: as §1, §2

green foxtail (Se) [17] = experiment: as above; format: in vivo; set-up: scale not given here; settings: dose 6.3 g ai/10a, 21st day after application
Protocol: as §1, §2

pale smartweed (Po) [18] = experiment: as above; format: in vivo; set-up: scale not given here; settings: dose 6.3 g ai/10a, 21st day after application
Protocol: as §1, §2

China jute (Ab) [19] = experiment: as above; format: in vivo; set-up: scale not given here; settings: dose 6.3 g ai/10a, 21st day after application
Protocol: as §1, §2

barnyardgrass (Ec) [20] = experiment: Test Example 1: herbicidal effects by paddy field soil treatment; format: in vivo; settings: 100 g of the active ingredient per 10 ares, 21st day after the application, index 0-5 of Table 47;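 also: grade of growth control; 5 = at least 90%; 4 = 70 to 90%; 3 = 50 to 70%; 2 = 30 to 50%; 1 = 10 to 30%; 0 = under 10%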
How it was run: (§8)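 Herbicidal effect was scored against a graded standard 21 days after treatment. Seeds were sown in puddled, leveled paddy soil flooded to 3 cm depth, and the active ingredient was applied at 100 g per 10 ares before greenhouse culture.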

bulrush (Sc) = experiment: as above; format: in vivo; settings: 100 g of the active ingredient per 10 ares, 21st day after the application, index 0-5 of Table 47;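 also: grade of growth control; 5 = at least 90%; 4 = 70 to 90%; 3 = 50 to 70%; 2 = 30 to 50%; 1 = 10 to 30%; 0 = under 10%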
How it was run: as §8

monochoria (Mo) = experiment: as above; format: in vivo; settings: 100 g of the active ingredient per 10 ares, 21st day after the application, index 0-5 of Table 47;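 also: grade of growth control; 5 = at least 90%; 4 = 70 to 90%; 3 = 50 to 70%; 2 = 30 to 50%; 1 = 10 to 30%; 0 = under 10%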
How it was run: as §8

slender amaranth (Am) [21] = experiment: Test Example 2: herbicidal effects by upland field soil treatment; format: in vivo; settings: 100 g of the active ingredient per 10 ares
Description: (§9) (Test on Herbicidal Effects by Upland Field Soil Treatment)

rice flatsedge (Ci) [22] = experiment: as above; format: in vivo; settings: 100 g of the active ingredient per 10 ares
Description: as §9

[23] = tested on: common lambsquarters (Ch); experiment: as above; format: in vivo; settings: 100 g of the active ingredient per 10 ares
Description: as §9

barnyardgrass (Ec) [24] = experiment: as above; format: in vivo; settings: 100 g of the active ingredient per 10 ares
Description: as §9

pale smartweed (Po) [25] = experiment: as above; format: in vivo; settings: 100 g of the active ingredient per 10 ares
Description: as §9

Digitaria ciliaris (Di) = experiment: as above; format: in vivo; settings: 100 g of the active ingredient per 10 ares
Description: as §9

slender amaranth (Am) [26] = experiment: Test Example 4: crop plant selectivity by upland field soil treatment (cotton), herbicidal effects; format: in vivo; set-up: scale not given here; settings: dose 6.3 g ai/10 a, evaluated 21st day after application
Protocol: as §1, §5

[27] = tested on: common lambsquarters (Ch); experiment: as above; format: in vivo; set-up: scale not given here; settings: dose 6.3 g ai/10 a, evaluated 21st day after application
Protocol: as §1, §5

green foxtail (Se) [28] = experiment: as above; format: in vivo; set-up: scale not given here; settings: dose 6.3 g ai/10 a, evaluated 21st day after application
Protocol: as §1, §5

pale smartweed (Po) [29] = experiment: as above; format: in vivo; set-up: scale not given here; settings: dose 6.3 g ai/10 a, evaluated 21st day after application
Protocol: as §1, §5

China jute (Ab) [30] = experiment: as above; format: in vivo; set-up: scale not given here; settings: dose 6.3 g ai/10 a, evaluated 21st day after application
Protocol: as §1, §5

[31] = 21st day after the application, index 0-5 of Table 47
[32] = evaluated on the 21st day after application

| Structure (SMILES) | Herbicidal effects Am (slender amaranth (Am) [1]) | Herbicidal effects Ci (rice flatsedge (Ci) [2]) | Herbicidal effects Di (Diaitaria ciliaris (Di)) | Herbicidal effects Ch [3] | Herbicidal effects Ec (barnyardgrass (Ec) [4]) | Herbicidal effects Po (pale smartweed (Po) [5]) | Herbicidal effects Am (slender amaranth (Am) [6]) | Herbicidal effects Ch [7] | Herbicidal effects Se (green foxtail (Se) [8]) | Herbicidal effects Po (pale smartweed (Po) [9]) | Herbicidal effects Ab (China jute (Ab) [10]) | Phytotoxicity Go (cotton (Go)) | Phytotoxicity Ze (corn (Ze)) | Herbicidal effects Ec (barnyardgrass (Ec) [20]) | Herbicidal effects Sc (bulrush (Sc)) | Herbicidal effects Mo (monochoria (Mo)) | Herbicidal effects Am (slender amaranth (Am) [26]) | Herbicidal effects Ch [27] | Herbicidal effects Se (green foxtail (Se) [28]) | Herbicidal effects Po (pale smartweed (Po) [29]) | other results |
| --- | --- | --- | --- | --- | --- | --- | --- | --- | --- | --- | --- | --- | --- | --- | --- | --- | --- | --- | --- | --- | --- |
| C#CC(CC)Oc1cc(-c2ccc(C(F)(F)F)n(C)c2=O)c(F)cc1Cl (racemic) [1-122] | 5 | 5 | 5 | 5 | 5 | 5 | 5 | 5 | 5 | 5 | 5 | 0 | 1 | 5 | 5 | 5 | 5 | 5 | 5 | 5 | Phytotoxicity Gl (soybean (Gl)): 2; Herbicidal effects Am (slender amaranth (Am) [11]): 5; Herbicidal effects Ch [12]: 5; Herbicidal effects Po (pale smartweed (Po) [13]): 5; Herbicidal effects Ab (China jute (Ab) [14]): 5; Phytotoxicity Tr (wheat (Tr)): 2; Herbicidal effects Am (slender amaranth (Am) [15]): 5; Herbicidal effects Ch [16]: 5; Herbicidal effects Se (green foxtail (Se) [17]): 5; Herbicidal effects Po (pale smartweed (Po) [18]): 5; Herbicidal effects Ab (China jute (Ab) [19]): 5; Herbicidal effects Am (slender amaranth (Am) [21]; [31]): 5; Herbicidal effects Ci (rice flatsedge (Ci) [22]; [31]): 5; Herbicidal effects Ch [23, 31]: 5; Herbicidal effects Ec (barnyardgrass (Ec) [24]; [31]): 5; Herbicidal effects Po (pale smartweed (Po) [25]; [31]): 5; Herbicidal effects Di (Digitaria ciliaris (Di); [31]): 5; Herbicidal effects Ab (China jute (Ab) [30]): 5 |
| CCOc1cc(-c2ccc(C(F)(F)F)n(C)c2=O)c(F)cc1Cl [1-150] | 5 | 5 | 5 | 5 | 5 | 5 | 5 | 5 | 5 | 5 | 5 | 0 | 1 | 5 | 5 | 5 | 5 | 5 | 5 | 5 | Phytotoxicity Gl (soybean (Gl)): 1; Herbicidal effects Am (slender amaranth (Am) [15]): 5; Herbicidal effects Ch [16]: 5; Herbicidal effects Se (green foxtail (Se) [17]): 5; Herbicidal effects Po (pale smartweed (Po) [18]): 5; Herbicidal effects Ab (China jute (Ab) [19]): 5; Herbicidal effects Am (slender amaranth (Am) [21]; [31]): 5; Herbicidal effects Ci (rice flatsedge (Ci) [22]; [31]): 5; Herbicidal effects Ch [23, 31]: 5; Herbicidal effects Ec (barnyardgrass (Ec) [24]; [31]): 5; Herbicidal effects Po (pale smartweed (Po) [25]; [31]): 5; Herbicidal effects Di (Digitaria ciliaris (Di); [31]): 5; Herbicidal effects Ab (China jute (Ab) [30]): 5 |
| Cn1c(C(F)(F)F)ccc(-c2cc(OCCF)c(Cl)cc2F)c1=O [1-172] | 5 | 5 | 5 | 5 | 5 | 5 | 5 | 5 | 5 | 5 | 5 | 1 | 2 | 5 | 5 | 5 | 5 | 5 | 5 | 5 | Herbicidal effects Am (slender amaranth (Am) [21]; [32]): 5; Herbicidal effects Ci (rice flatsedge (Ci) [22]; [32]): 5; Herbicidal effects Ch [23, 32]: 5; Herbicidal effects Ec (barnyardgrass (Ec) [24]; [32]): 5; Herbicidal effects Po (pale smartweed (Po) [25]; [32]): 5; Herbicidal effects Di (Digitaria ciliaris (Di); [32]): 5; Herbicidal effects Ab (China jute (Ab) [30]): 5 |
